In patent US8487121B2, “Chromane derivatives as TRPV3 modulators” (Glenmark Pharmaceuticals S.A., priority 2007, dated 2013) one finds inhibition and IC50 data, which are given here for 24 compounds.

In the experiment the target is T1, Human TRPV3 (Homo sapiens, UniProt Q8NET8).
T1 construct: expressed in transfected cells; host or cells: CHO cells (G-418 selected)
T1 sequence (Q8NET8 1-790): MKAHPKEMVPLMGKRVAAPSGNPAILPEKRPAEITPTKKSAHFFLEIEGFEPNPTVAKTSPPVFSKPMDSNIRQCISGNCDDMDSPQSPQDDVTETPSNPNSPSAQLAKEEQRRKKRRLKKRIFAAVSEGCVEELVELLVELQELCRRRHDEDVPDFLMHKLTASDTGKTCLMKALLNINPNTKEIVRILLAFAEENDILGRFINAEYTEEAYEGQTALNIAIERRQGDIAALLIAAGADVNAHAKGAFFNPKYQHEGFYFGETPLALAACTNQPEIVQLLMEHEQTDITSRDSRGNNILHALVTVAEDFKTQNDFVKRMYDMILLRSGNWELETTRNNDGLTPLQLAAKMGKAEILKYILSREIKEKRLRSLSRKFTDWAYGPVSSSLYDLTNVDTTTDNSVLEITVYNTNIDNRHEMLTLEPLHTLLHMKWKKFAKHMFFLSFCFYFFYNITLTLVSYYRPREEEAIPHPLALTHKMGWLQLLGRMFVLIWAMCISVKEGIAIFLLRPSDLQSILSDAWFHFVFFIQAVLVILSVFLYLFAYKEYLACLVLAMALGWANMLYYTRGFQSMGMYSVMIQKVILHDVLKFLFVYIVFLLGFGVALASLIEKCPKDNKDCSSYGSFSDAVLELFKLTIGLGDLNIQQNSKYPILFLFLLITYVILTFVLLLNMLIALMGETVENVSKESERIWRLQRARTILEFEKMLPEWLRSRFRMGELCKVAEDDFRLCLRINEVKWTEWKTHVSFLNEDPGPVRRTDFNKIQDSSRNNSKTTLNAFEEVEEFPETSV
Kind of experiment: 45Calcium uptake assay: inhibition of 2-APB induced cellular uptake of radioactive calcium. The experiment is classed as cell-based. The following applies: human TRPV3 expressing CHO cells, 2-APB 500 μM; for inhibition at 1 µM: 1.0 μM compound, read-out: Percentage inhibition at 1.0 μM; for inhibition at 10 µM: 10.0 μM compound, read-out: Percentage inhibition at 10.0 μM. From the text: The illustrative examples of the present invention are screened for TRPV3 activity according to a modified procedure described in Toth, A. et al. Life Sciences (2003), 73, 487-498. The screening of the compounds can be carried out by other methods and procedures known to a person skilled in the art. Such screening methods may be found in Hu, H-Z., et al. J. Biol. Chem. (2004), 279, 35741-35748; Smith, G. D et al. Nature (2002), 418, 186-190 and Peier, A. M., et al. Science (2002), 296, 2046-2049.
Screening for TRPV3 Antagonist Using the ^45Calcium Uptake Assay:
The inhibition of TRPV3 receptor activation was followed as inhibition of 2-APB induced cellular uptake of radioactive calcium. Test compounds were dissolved in DMSO to prepare 20 mM stock and then diluted using plain medium with 0.1% BSA and 1.8 mM CaCl2 to get desired concentration. Final concentration of DMSO in the reaction was 0.5% (v/v). Human TRPV3 expressing CHO cells were grown in F-12 DMEM medium with 10% FBS, 1% penicillin-streptomycin solution, 400 μg/ml of G-418. Cells were seeded 24 h prior to the assay in 96 well plates so as to get ˜50,000 cells per well on the day of experiment. Cells were treated with test compounds for 10 minutes followed by addition of 2-APB at a final concentration of 500 μM and 5 μCi/ml ^45Ca^+2 for 4 minutes. Cells were washed and lysed using buffer containing 1% Triton X-100, 0.1% deoxycholate and 0.1% SDS. Radioactivity in the lysate was measured in Packardt Top count after addition of liquid scintillant.
Concentration response curves were plotted as a % of maximal response obtained in the absence of test antagonist. IC50 value was calculated from concentration response curve by nonlinear regression analysis using GraphPad PRISM software.
Percentage inhibition at concentrations of 1.0 μM and 10.0 μM are given in the table along with IC50 (nM) values for selected examples.

By inhibition is commonly meant the relative decrease from the control value, in per cent. One may read the IC50 as the concentration that gives 50% inhibition. For the compound `Cc1c(CC(=O)NC2CC3(CCC3)Oc3ccc(F)cc32)[nH]c2ccc(F)cc12` (stereo not shown) [Example 24, N-(6-Fluoro-3,4-dihydrospiro[chromene-2,1′-cyclobutan]-4-yl)-2-(5-fluoro-3-methyl-1H-indol-2-yl)acetamide], the inhibition at 1 µM was found to be 26.9%, the inhibition at 10 µM came to 89.9% and the IC50 was in the range of 1000 to 2000 nM.
For `COc1ccc2[nH]c(C)c(CC(=O)NC3CC4(CCC4)Oc4ccc(Cl)cc43)c2c1` (stereo not shown) [Example 25, N-(6-Chloro-3,4-dihydrospiro[chromene-2,1′-cyclobutan]-4-yl)-2-(5-methoxy-2-methyl-1H-indol-3-yl)acetamide], the inhibition at 1 µM came out at 19% and the inhibition at 10 µM worked out at 48%.
On the same counts, the results for `O=C(Cc1noc2ccccc12)N[C@@H]1CC2(CCC2)Oc2ccc(Cl)cc21` [Example 26] are 29.4% and 46.1%.
Consider `O=C(Cc1noc2ccccc12)N[C@H]1CC2(CCC2)Oc2ccc(Cl)cc21` [Example 27], for which the inhibition at 1 µM is 5.3% and the inhibition at 10 µM was determined as 75.9%.
On the same counts, the results for `O=C(CCc1ccccc1OC1CCCC1)NC1CC2(CCC2)Oc2ccc(Cl)cc21` (stereo not shown) [Example 28, N-(6-Chloro-3,4-dihydrospiro[chromene-2,1′-cyclobutan]-4-yl)-3-(2-cyclopentyloxyphenyl)propanamide] are 58% and 84.3%.
On the same counts, the results for `O=C(CCc1cccc(OC2CCCC2)c1)N[C@@H]1CC2(CCC2)Oc2ccc(Cl)cc21` [Example 29, N-[(4R)-6-chloro-3,4-dihydrospiro[chromene-2,1′-cyclobutan]-4-yl]-3-(3-cyclopentyloxy)phenyl propanamide] are 43.6% and 88.4%.
On the same counts, the results for `O=C(CCc1cccc(OC2CCCC2)c1)N[C@H]1CC2(CCC2)Oc2ccc(Cl)cc21` [Example 30, N-[(4S)-6-chloro-3,4-dihydrospiro[chromene-2,1′-cyclobutan]-4-yl]-3-(3-cyclopentyloxy)phenylpropanamide] are 46.8% and 80.6%.
On to `O=C(CCc1ccccc1OC1CCCC1)N[C@@H]1CC2(CCC2)Oc2c(Cl)cccc21` [Example 31, N-1(4R)-(8-Chloro-3,4-dihydrospiro[chromene-2,1′-cyclobutan]-4-yl)-3-(2-cyclopentyloxy)phenyl propanamide], for which the inhibition at 1 µM was 78.6%, the inhibition at 10 µM was determined as 97.4% and the IC50 fell in the range of 500 to 1000 nM.
As to `O=C(CCc1ccccc1OC1CCCC1)N[C@H]1CC2(CCC2)Oc2c(Cl)cccc21` [Example 32], the inhibition at 1 µM turned out to be 24.8% and the inhibition at 10 µM amounted to 43.9%.
On the same counts, the results for `O=C(CCc1ccccc1OC1CCCC1)N[C@H]1CC2(CCC2)Oc2cc(OCc3ccccc3)ccc21` [Example 33, 7-Benzyloxy-N-(3,4-dihydrospiro[chromene-2,1′-cyclobutan]-4-yl)-3-(2-cyclopentylxoyphenyl)propanamide] are 13.5% and 33.9%.
Turning to `CC(C)S(=O)(=O)Nc1ccccc1CCC(=O)NC1CC2(CCC2)Oc2ccc(Cl)cc21` (stereo not shown) [Example 34, N-(6-Chloro-3,4-dihydrospiro[chromene-2,1′-cyclobutan]-4-yl)-3-{2-[(isopropylsulfonyl)amino]phenyl}propanamide], the inhibition at 1 µM is 5.69% and the inhibition at 10 µM amounted to 77.1%.
On the same counts, the results for `O=C(CCc1ccccc1-c1ccccn1)NC1CC2(CCC2)Oc2ccc(Cl)cc21` (stereo not shown) [Example 35, N-(6-Chloro-3,4-dihydrospiro[chromene-2,1′-cyclobutan]-4-yl)-3-(2-pyridin-2-ylphenyl) propanamide] are 44.8% and 97.6%.
On to `COc1cccc(CCC(=O)NC2CC3(CCC3)Oc3ccccc32)c1OC1CCCC1` (stereo not shown) [Example 37, N-(3,4-Dihydrospiro[chromene-2,1′-cyclobutan]-4-yl)-3-(2-cyclopentyloxy-3-methoxy)phenylpropanamide], for which the inhibition at 1 µM was 46.3%, the inhibition at 10 µM amounted to 95.7% and the IC50 fell in the range of 500 to 1000 nM.
`COc1cccc(CCC(=O)NC2CC3(CCC3)Oc3ccc(Cl)cc32)c1OC` (stereo not shown) [Example 38, N-(6-Chloro-3,4-dihydrospiro[chromene-2,1′-cyclobutan]-4-yl)-3-(2,3-dimethoxy)-phenylpropanamide]: the inhibition at 1 µM is 23.8% and the inhibition at 10 µM came out at 82.7%.
As for `COc1cccc(CCC(=O)NC2CC3(CCC3)Oc3ccc(Cl)cc32)c1OC(C)C` (stereo not shown) [Example 39, N-(6-Chloro-3,4-dihydrospiro[chromene-2,1′-cyclobutan]-4-yl)-3-(2-isopropoxy-3-methoxy)phenylpropanamide], the inhibition at 1 µM amounted to 73.8%, the inhibition at 10 µM is 97.5% and the IC50 was in the range of 500 to 1000 nM.
`COc1ccc(CCC(=O)NC2CC3(CCC3)Oc3ccc(Cl)cc32)cc1Cl` (stereo not shown) [Example 40, N-(6-Chloro-3,4-dihydrospiro[chromene-2,1′-cyclobutan]-4-yl)-3-(3-chloro-4-methoxy)phenylpropanamide]: the inhibition at 1 µM came out at 6.8% and the inhibition at 10 µM turned out to be 93.5%.
In the case of `COc1cccc(CCC(=O)NC2CC3(CCC3)Oc3ccc(Cl)cc32)c1OCC1CC1` (stereo not shown) [Example 41, N-(6-Chloro-3,4-dihydrospiro[chromene-2,1′-cyclobutan]-4-yl)-3-(2-cyclopropylmethoxy-3-methoxy)phenylpropanamide], the inhibition at 1 µM was found to be 49%, the inhibition at 10 µM is 96.4% and the IC50 lay in the range of 500 to 1000 nM.
On the same counts, the results for `COc1cccc(CCC(=O)N[C@@H]2CC3(CCC3)Oc3ccc(Cl)cc32)c1OC1CCCC1` [Example 42] are 47.2%, 95.1% and 500 to 1000 nM.
As for `COc1cccc(CCC(=O)N[C@H]2CC3(CCC3)Oc3ccc(Cl)cc32)c1OC1CCCC1` [Example 43], the inhibition at 1 µM is 64.6%, the inhibition at 10 µM was 91.7% and the IC50 lay within 500 to 1000 nM.
For `CCOc1cccc(CCC(=O)NC2CC3(CCC3)Oc3ccc(Cl)cc32)c1OC1CCCC1` (stereo not shown) [Example 44, N-(6-Chloro-3,4-dihydrospiro[chromene-2,1′-cyclobutan]-4-yl)-3-(2-cyclopentyloxy-3-ethoxy)phenylpropanamide], the inhibition at 1 µM came to 50.8% and the inhibition at 10 µM came out at 88.8%.
For `COc1cccc(CCC(=O)NC2CC3(CCC3)Oc3cc(Cl)ccc32)c1OC1CCCC1` (stereo not shown) [Example 45, N-(7-Chloro-3,4-dihydrospiro[chromene-2,1′-cyclobutan]-4-yl)-3-(2-cyclopentyloxy-3-methoxy)phenylpropanamide], the inhibition at 1 µM came to 59.2%, the inhibition at 10 µM came to 94.8% and the IC50 is 500 to 1000 nM.
On the same counts, the results for `CCOc1c(CCC(=O)NC2CC3(CCC3)Oc3c(Cl)cccc32)cccc1OC` (stereo not shown) [Example 46, N-(8-Chloro-3,4-dihydrospiro[chromene-2,1′-cyclobutan]-4-yl)-3-(2-ethoxy-3-methoxy)phenylpropanamide] are 53.2%, 99.7% and 500 to 1000 nM.
As to `COc1cccc(CCC(=O)N[C@@H]2CC3(CCC3)Oc3c(Cl)cccc32)c1OC1CCCC1` [Example 47], the IC50 is less than 500 nM.
On the same count and under the same terms, next, `COc1cccc(CCC(=O)N[C@H]2CC3(CCC3)Oc3c(Cl)cccc32)c1OC1CCCC1` [Example 48]: 500 to 1000 nM.
